≈ marks a conversion by molar mass, not a printed value.
Legend:
Assay type in all cases: functional
[1] = tested on: Escherichia coli; assay: Antibacterial activity against gram-negative Escherichia coli MG1655 expressing AcrAB-TolC efflux pump deletion mutant by CLSI broth microdilution method
[2] = tested on: Escherichia coli; assay: Permeability index, ratio of MIC for wild type Escherichia coli MG1655 to MIC for Escherichia coli MG1655 membrane permeabilized mutant in presence of polymyxinnonapeptide
[3] = tested on: Escherichia coli; assay: Efflux index, ratio of MIC for wild type Escherichia coli MG1655 to MIC for Escherichia coli MG1655 expressing AcrAB-TolC efflux pump deletion mutant
[4] = tested on: Escherichia coli; assay: Antibacterial activity against gram-negative wild type Escherichia coli MG1655 by CLSI broth microdilution method
[5] = tested on: Staphylococcus aureus; assay: Antibacterial activity against methicillin-susceptible Staphylococcus aureus ATCC 29213 by CLSI broth microdilution method
[6] = tested on: Escherichia coli; assay: Antibacterial activity against gram-negative Escherichia coli MG1655 membrane permeabilized mutant in presence of polymyxinnonapeptide by CLSI broth microdilution method
[7] = biological target: Bacterial 70S ribosome; assay: Inhibition of protein synthesis in Escherichia coli ribosomes incubated for 1 hr at 37 degC by SDS-PAGE and Gaussia luciferase reporter gene assay

| SMILES | MIC [1] [mg/L] | Ratio [2] | Ratio [3] | MIC [4] [mg/L] | MIC [5] [mg/L] | MIC [6] [mg/L] | IC50 [7] [µM] |
| --- | --- | --- | --- | --- | --- | --- | --- |
| CC(=O)NC[C@H]1CN(c2ccc(-c3ccc(CN)cc3)c(F)c2)C(=O)O1 | 8 (≈ 22.4 µM) | 2 | 8 | 64 (≈ 179 µM) | 2 (≈ 5.6 µM) | 32 | – |
| O=C(NC[C@H]1CN(c2ccc(-c3ccc(F)c(O)c3)c(F)c2)C(=O)O1)C(F)F | 4 (≈ 10 µM) | >4 | >8 | > 32 | 1 (≈ 2.51 µM) | 8 | – |
| NC[C@H]1CN(c2ccc(N3CCOCC3)c(F)c2)C(=O)O1 | – | – | – | > 256 | > 64 | – | – |
| NCc1ccc(-c2ccc(N3C[C@H](Cn4cc(O)nn4)OC3=O)cc2F)cc1 | 32 (≈ 83.5 µM) | – | >2 | > 64 | 8 (≈ 20.9 µM) | – | – |
| NCc1ccc(-c2ccc(N3C[C@H](CN4C(=O)CNC4=O)OC3=O)cc2F)cc1 | – | – | – | > 256 | > 64 | – | – |
| N/C(=N\O)c1ccc(-c2ccc(N3C[C@H](CO)OC3=O)cc2F)cn1 | 16 (≈ 46.2 µM) | >16 | >16 | > 256 | 1 (≈ 2.89 µM) | 16 | – |
| NCc1ccc(-c2ccc(N3C[C@H](CNC(=O)C(F)(F)F)OC3=O)cc2F)cc1 | 2 (≈ 4.86 µM) | 6 | 32 | 64 (≈ 156 µM) | 2 (≈ 4.86 µM) | 11 | – |
| O=C1CCc2cc(-c3ccc(N4C[C@H](CO)OC4=O)cc3F)cc(O)c21 | 8 (≈ 22.4 µM) | >32 | 8 | > 256 | 1 (≈ 2.8 µM) | 64 | – |
| N/C(=N\O)c1ccc(-c2ccc(N3C[C@H](CNC(=O)C(F)(F)F)OC3=O)cc2F)cc1 | < 2 | >16 | >256 | > 256 | < 0.5 | 16 | – |
| CCOc1cnnn1C[C@H]1CN(c2ccc(-c3ccc(CN)cc3)c(F)c2)C(=O)O1 | 128 (≈ 311 µM) | >1 | >2 | > 256 | 32 (≈ 77.8 µM) | 256 | – |
| CC(=O)NC[C@H]1CN(c2ccc(-c3ccc(F)c(O)c3)c(F)c2)C(=O)O1 | 8 (≈ 22.1 µM) | >16 | >32 | > 256 | 2 (≈ 5.52 µM) | 16 | – |
| O=C1O[C@@H](CO)CN1c1ccc(O)cc1F | – | – | – | > 256 | > 64 | – | – |
| CC(=O)NC[C@H]1CN(c2ccc(-c3ccc(C#N)c(O)c3)c(F)c2)C(=O)O1 | 32 (≈ 86.6 µM) | >8 | >8 | > 256 | 2 (≈ 5.41 µM) | 32 | – |
| NCc1ncc(-c2ccc(N3C[C@H](CO)OC3=O)cc2F)cc1O | – | 1.6 | 1.6 | 51 (≈ 153 µM) | 20 (≈ 60 µM) | – | 192 |
| NCc1ccc(-c2ccc(N3C[C@H](Cn4nc[nH]c4=O)OC3=O)cc2F)cc1 | – | – | – | > 64 | 32 (≈ 83.5 µM) | – | – |
| COc1cc(N2C[C@H](CO)OC2=O)ccc1-c1ccc(CN)cc1 | – | – | – | > 256 | > 64 | – | – |
| NCc1ccc(-c2ccc(N3C[C@H](CN4CCOC4=O)OC3=O)cc2F)cc1 | 256 (≈ 664 µM) | – | >=2 | > 256 | 16 (≈ 41.5 µM) | – | – |
| NCc1cc(F)c(-c2ccc(N3C[C@H](CO)OC3=O)cc2F)cc1O | – | 2 | 1 | – | – | – | – |
| N#Cc1ccc(-c2ccc(N3C[C@H](CN)OC3=O)cc2F)cc1O | – | – | – | > 256 | 64 (≈ 196 µM) | – | – |
| NCc1ccc(-c2ccc(N3C[C@H](Cn4nncc4C(=O)O)OC3=O)cc2F)cc1 | – | – | – | > 128 | 16 (≈ 38.9 µM) | – | – |
| CC(=O)NC[C@H]1CN(c2ccc(-c3cnc(C#N)c(O)c3)c(F)c2)C(=O)O1 | 128 (≈ 346 µM) | – | >2 | > 256 | 32 (≈ 86.4 µM) | – | – |
| N#Cc1ccc(-c2ccc(N3C[C@H](CO)OC3=O)nc2)cc1O | – | – | – | > 256 | > 64 | – | – |
| NCc1ccc(-c2ccc(N3C[C@H](C(N)=O)OC3=O)cc2F)cc1 | – | – | – | > 256 | > 64 | – | – |
| O=C1O[C@@H](CO)CN1c1ccc(-c2ccccc2F)cc1 | 8 (≈ 27.8 µM) | – | >8 | > 64 | 4 (≈ 13.9 µM) | – | – |
| NCc1ccc(-c2ccc(N3C[C@H](Cn4cc(C(=O)O)nn4)OC3=O)cc2F)cc1 | – | – | – | > 256 | > 64 | – | – |
| NCc1ccc(-c2ccc(N3C[C@H](CO)OC3=O)cc2F)cc1O | – | 2.6 | 10.2 | – | – | – | – |
| CC(=O)NC[C@H]1CN(c2ccc(-c3ccc(CN)c(O)c3)c(F)c2)C(=O)O1 | 8 (≈ 21.4 µM) | 2 | 16 | 128 (≈ 343 µM) | 4 (≈ 10.7 µM) | 64 | – |
| COc1ccc(N2C[C@H](CO)OC2=O)cc1O | – | – | – | > 256 | > 64 | – | – |

From ChEMBL document CHEMBL4177666, “Compound design guidelines for evading the efflux and permeation barriers of Escherichia coli with the oxazolidinone class of antibacterials: Test case for a general approach to improving whole cell Gram-negative activity” (Bioorg Med Chem Lett, 2017)
